≈ marks a conversion by molar mass, not a printed value.
Experiments:
[1] = target: T1, PBP3 from Pseudomonas aeruginosa (PAO1) (Pseudomonas aeruginosa, UniProt G3XD46); assay: Bocillin-FL fluorescence polarization competition binding, P. aeruginosa PBP3; details: Binding affinity to P. aeruginosa PBP3; fluorescence polarization competition binding assay using Bocillin-FL; read-out: P. aeruginosa PBP3 Potency
T1 construct: made in house
In short: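 Purified PBP was preincubated with inhibitor (E. coli PBP3 1.5 μM, 30 min; P. aeruginosa PBP3 0.75 μM, A. baumannii PBP3 0.2 μM and PBP1a 1 μM, 15 min), then Bocillin-FL (0.1 μM; 0.05 μM for PBP1a) added and FP read up to 60 min. EC50 = 50% loss of bound probe.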

A. baumannii ATCC 17978 = assay: microbe, parasite or virus in culture; assay type: cell-based; details: Acinetobacter baumannii, ATCC17978, read-out: Minimum inhibitory concentration (MIC), A. baumannii ATCC 17978
P. aeruginosa ATCC 35151 = assay: microbe, parasite or virus in culture; assay type: cell-based; details: Pseudomonas aeruginosa, ATCC35151, read-out: Minimum inhibitory concentration, P. aeruginosa ATCC 35151
[2] = test system: P. aeruginosa (ΔmexAB-oprM); assay: Broth microdilution MIC in iron-depleted CAMHB (IDM); assay type: cell-based; details: Pseudomonas aeruginosa; iron-depleted CAMHB (IDM); […]; read-out: Minimum inhibitory concentration, P. aeruginosa ΔmexAB-oprM
P. aeruginosa CDC-0054 = assay: microbe, parasite or virus in culture; assay type: cell-based; details: Pseudomonas aeruginosa, CDC0054, read-out: Minimum inhibitory concentration, P. aeruginosa CDC-0054
P. aeruginosa CDC-0090 = assay: microbe, parasite or virus in culture; assay type: cell-based; details: Pseudomonas aeruginosa, CDC0090, read-out: Minimum inhibitory concentration, P. aeruginosa CDC-0090
A. baumannii 1258916 = assay: microbe, parasite or virus in culture; assay type: cell-based, Acinetobacter baumannii; details: Acinetobacter baumannii, 1258916, read-out: Minimum inhibitory concentration (MIC), A. baumannii 1258916
A. baumannii CDC-0033 = assay: microbe, parasite or virus in culture; assay type: cell-based; details: Acinetobacter baumannii, CDC0033, read-out: Minimum inhibitory concentration (MIC), A. baumannii CDC-0033
A. baumannii CDC-0036 = assay: microbe, parasite or virus in culture; assay type: cell-based; details: Acinetobacter baumannii, CDC0036, read-out: Minimum inhibitory concentration (MIC), A. baumannii CDC-0036
[3] = test system: B. humptydooensis ATCC BAA-2767; assay: microbe, parasite or virus in culture; assay type: cell-based; details: Burkholderia humptydooensis, ATCCBAA2767, read-out: Minimum inhibitory concentration (MIC), B. humptydooensis ATCC BAA-2767

T1 sequence (G3XD46 whole entry): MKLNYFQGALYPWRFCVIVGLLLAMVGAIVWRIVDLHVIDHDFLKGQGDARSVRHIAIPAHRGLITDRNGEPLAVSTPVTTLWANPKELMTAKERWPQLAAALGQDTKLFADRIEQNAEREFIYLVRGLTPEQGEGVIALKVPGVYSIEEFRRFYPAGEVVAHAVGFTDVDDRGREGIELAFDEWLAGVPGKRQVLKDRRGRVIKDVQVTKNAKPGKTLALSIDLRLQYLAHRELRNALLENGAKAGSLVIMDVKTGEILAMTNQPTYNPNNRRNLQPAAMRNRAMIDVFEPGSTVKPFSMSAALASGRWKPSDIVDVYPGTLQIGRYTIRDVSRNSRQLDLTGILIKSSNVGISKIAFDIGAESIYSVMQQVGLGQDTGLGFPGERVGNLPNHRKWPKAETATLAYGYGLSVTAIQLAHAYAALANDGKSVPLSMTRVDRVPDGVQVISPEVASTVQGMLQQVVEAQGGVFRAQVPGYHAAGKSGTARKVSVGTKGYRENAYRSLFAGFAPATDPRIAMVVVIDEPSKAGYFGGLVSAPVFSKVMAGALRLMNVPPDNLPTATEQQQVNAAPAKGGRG

Compound	IC50 [1] [µM]	MIC (A. baumannii ATCC 17978) [µg/mL]	MIC (P. aeruginosa ATCC 35151) [µg/mL]	MIC [2] [µg/mL]	MIC (P. aeruginosa CDC-0054) [µg/mL]	MIC (P. aeruginosa CDC-0090) [µg/mL]	MIC (A. baumannii 1258916) [µg/mL]	MIC (A. baumannii CDC-0033) [µg/mL]	MIC (A. baumannii CDC-0036) [µg/mL]	MIC [3] [µg/mL]
O=C(O)c1c(F)ccc2c1OB(O)[C@@H](NC(=O)[C@H](NC(=O)N1CCN(C3CCN(Cc4ccncc4)CC3)C1=O)c1cc(F)c(O)c(O)c1Cl)C2 [Example 493, (R)-3-((R)-2-(2-chloro-5-fluoro-3,4-dihydroxyphenyl)-2-(2-oxo-3-(1-(pyridin-4-ylmethyl)piperidin-4-yl)imidazolidine-1-carboxamido)acetamido)-7-fluoro-2-hydroxy-3,4-dihydro-2H-benzo[e][1,2]oxaborinine-8-carboxylic acid]	< 10	< 1	< 1	< 1	2 to 4 (≈ 2.74 to 5.49 µM)	< 1	< 1	2 to 4 (≈ 2.74 to 5.49 µM)	< 1	< 1
O=C(O)c1c(F)ccc2c1OB(O)[C@@H](NC(=O)[C@H](NC(=O)N1CCN(C3CCN(C(=O)c4ccc(O)c(O)c4Cl)CC3)C1=O)c1ccc(P(=O)(O)O)cc1)C2 [Example 494, (R)-3-((R)-2-(3-(1-(2-chloro-3,4-dihydroxybenzoyl)piperidin-4-yl)-2-oxoimidazolidine-1-carboxamido)-2-(4-phosphonophenyl)acetamido)-7-fluoro-2-hydroxy-3,4-dihydro-2H-benzo[e][1,2]oxaborinine-8-carboxylic acid]	< 10	< 1	< 1	< 1	< 1	< 1	< 1	< 1	< 1	< 1
O=C(O)c1c(F)ccc2c1OB(O)[C@@H](NC(=O)[C@H](NC(=O)N1CCN(C3CCN(C(=O)c4cc(O)c(O)c(Cl)c4)CC3)C1=O)c1ccc(P(=O)(O)O)cc1)C2 [Example 496, (R)-3-((R)-2-(3-(1-(3-chloro-4,5-dihydroxybenzoyl)piperidin-4-yl)-2-oxoimidazolidine-1-carboxamido)-2-(4-phosphonophenyl)acetamido)-7-fluoro-2-hydroxy-3,4-dihydro-2H-benzo[e][1,2]oxaborinine-8-carboxylic acid]	< 10	< 1	< 1	< 1	< 1	< 1	< 1	< 1	< 1	< 1
O=C(O)c1c(F)ccc2c1OB(O)[C@@H](NC(=O)[C@H](NC(=O)N1CCN(Cc3ccc(O)c(O)c3Cl)C(=O)C1=O)c1cc(F)c(P(=O)(O)O)c(F)c1)C2 [Example 502, (R)-3-((R)-2-(4-(2-chloro-3,4-dihydroxybenzyl)-2,3-dioxopiperazine-1-carboxamido)-2-(3,5-difluoro-4-phosphonophenyl)acetamido)-7-fluoro-2-hydroxy-3,4-dihydro-2H-benzo[e][1,2]oxaborinine-8-carboxylic acid]	< 10	< 1	< 1	< 1	< 1	< 1	< 1	< 1	< 1	< 1
O=C(NCCN1CCN(C(=O)N[C@@H](C(=O)N[C@H]2Cc3ccc(F)c(C(=O)O)c3OB2O)c2ccc(P(=O)(O)O)cc2)C(=O)C1=O)c1ccc(O)c(O)c1Cl [Example 503, (R)-3-((R)-2-(4-(2-(2-chloro-3,4-dihydroxybenzamido)ethyl)-2,3-dioxopiperazine-1-carboxamido)-2-(4-phosphonophenyl)acetamido)-7-fluoro-2-hydroxy-3,4-dihydro-2H-benzo[e][1,2]oxaborinine-8-carboxylic acid]	< 10	< 1	< 1	< 1	< 1	< 1	< 1	2 to 4 (≈ 2.53 to 5.05 µM)	2 to 4 (≈ 2.53 to 5.05 µM)	< 1

— US20240270762A1, “PENICILLIN-BINDING PROTEIN INHIBITORS” (priority 2021, published 2024)
